Read-outs that look alike come from different tables or passages of the source.
Tests used:
[1] = test system: normal CRL2120 human skin fibroblasts; experiment: Neutral red (NR) uptake cytotoxicity assay, normal fibroblasts; type: cell-based; conditions: Skin fibroblast, 72 h incubation
From the text: (§1) DMSO at 0.1% was used as solvent control.

[2] = test system: MCF-7 breast adenocarcinoma cells; experiment: Neutral red (NR) uptake cytotoxicity assay, MCF7; type: cell-based, human; conditions: for IC50: Homo sapiens, MCF7, NR assay, 72 h incubation; for selectivity index, MCF7: IC50 in CRL2120 normal fibroblasts divided by IC50 in MCF7
From the text: as §1

[3] = test system: DLD-1 colorectal adenocarcinoma cells; experiment: Neutral red (NR) uptake cytotoxicity assay, DLD-1; type: cell-based, human; conditions: for IC50: Homo sapiens, DLD-1, NR assay, 72 h incubation; for selectivity index, DLD-1: IC50 in CRL2120 normal fibroblasts divided by IC50 in DLD-1
From the text: as §1

[4] = Neutral red (NR) uptake cytotoxicity assay, Caco-2; conditions: human, Caco-2
From the text: (§3) Four human carcinoma cell lines and one normal cell line were used. They were: DLD-1 and Caco-2 colorectal adenocarcinoma cell lines, HepG2 hepatocarcinoma cells, MCF-7 breast adenocarcinoma cells and the normal CRL2120 human skin fibroblasts. Caco-2 cells (from the ŞAP Institute of Ankara,Turkey andMCF-7 cells (from ATCC) provided by Prof. Dr. Tansu Koparal (Anadolu University, Eskisehir, Turkey),HepG2, DLD-1 and CRL2120 cells were obtained from American Type Culture Collection (ATCC); DMEM medium (Sigma-aldrich, Munich, Germany) was used to maintain cells as a monolayer and was supplemented with 10% fetal calf serum and 1% penicillin (100 U/mL)-streptomycin (100 μg/mL) in a humidified 5% CO2 atmosphere at 37 °C.
(§4) Dimethylsufoxide (DMSO) at less than 0.1% final concentration was used to dilute the tested samples. DMSO at 0.1% was used as solvent control. The incubation time was 72 h incubation in humidified 5% CO2 atmosphere at 37 °C, followed by NR coloration as previously described [23, 24]. ELx 808 Ultra Microplate Reader (Biotek) equipped with a 540 nm filter was used to measure the absorbance. Each experiment was performed at least three times, with three replicates each. The viability was evaluated based on a comparison with untreated cells. The IC50 values represented the sample’s concentrations required to inhibit 50% of cell proliferation and were calculated from a calibration curve by linear regression using Microsoft Excel [26] as follows: for each sample, the cell growth percentages at the different concentrations were used to draw the calibration curve with logarithmic regression obtained by 2 measuring points (one smaller and one larger than 50%) from where the IC50 value was deduced.

[5] = test system: Caco-2 colorectal adenocarcinoma cells; experiment: Neutral red (NR) uptake cytotoxicity assay, Caco-2; conditions: read-out: IC50 values, Caco-2
From the text: as §3, §4

[6] = test system: HepG2 hepatocarcinoma cells; experiment: Neutral red (NR) uptake cytotoxicity assay, HepG2; type: cell-based, human; conditions: for IC50: Homo sapiens, HepG2, NR assay, 72 h incubation; for selectivity index, HepG2: IC50 in CRL2120 normal fibroblasts divided by IC50 in HepG2
From the text: as §1

in vitro = conditions: human, Caco-2
From the text: as §3, §4

[7] = test system: four tested cancer cell lines (MCF-7, DLD-1, Caco-2, HepG2); experiment: Neutral red (NR) uptake cytotoxicity assay, summary over the four tested cancer cell lines; type: cell-based; conditions: Homo sapiens
From the text: as §1

MCF-7 cells [8] = experiment: Integrity of mitochondrial membrane potential (JC-1 staining, flow cytometry); type: cell-based, human; conditions: MCF-7, 72 h, IC50; control 6.0%
Method: Cells were tested in 6-well plates (3 mL, 1 × 10^5 cells/mL) and the incubation time was 72 h in humidified 5% CO2 atmosphere at 37 °C. The tested concentrations were ¼ × IC50, ½ × IC50 and IC50. Untreated cells (control) were used for comparison with treated cells. JC-1 staining was performed according to the manufacturer’s protocol as reported previously. Cells were then measured in a BD FACS Aria I Cell Sorter Flow Cytometer (Becton-Dickinson, Germany). The JC-1 signal was measured at an excitation wavelength of 561 nm (150 mW) and detected using a 586/15 nm band-pass filter. The signal was analyzed at an excitation wavelength of 640 nm (40 mW) and detected using a 730/45 nm bandpass filter. Cytographs were analyzed using BD FACSDiva™ Flow Cytometry Software Version 6.1.2 (Becton-Dickinson). All experiments were performed at least in triplicates.

MCF-7 cells [9] = experiment: Reactive oxygen species production (H2DCFH-DA); type: cell-based, human; conditions: MCF-7, 24 h, at IC50, compared to non-treated cells
Method: Cells were tested in 6-well plates (3 mL, 1 × 10^5 cells/mL) and the incubation time was 24 h in humidified 5% CO2 atmosphere at 37 °C. The tested concentrations were ¼ × IC50, ½ × IC50 and IC50. Untreated cells (control) were used for comparison with treated cells. The fluorescence was measured using SpectraMax® M5 Microplate Reader (Molecular Devices, Biberach, Germany) at 480/530 nm. All experiments were performed at least in triplicates.

[10] = test system: caspases 3/7 in MCF-7 cells; experiment: Caspase-Glo 3/7 assay; type: cell-based, human; conditions: MCF-7, 6 h, optimal activity generally at IC50, vs untreated control
From the text: (§2) The BioTek Synergy™ HT multi-detection microplate reader was used to measure the luminescence and Caspase activity was expressed as percentage of the untreated control.

MCF-7 cells [11] = experiment: Cell cycle analysis and detection of apoptosis by flow cytometry; type: cell-based, human; conditions: for percentages of cells in sub-G0/G1 phase: MCF-7, 2 × IC50 (as printed in text); for percentages of cells in sub-G0/G1 phase / Growth (percentage of control) Sub-G0; percentage of cells in sub-G0/G1 phase: non-treated cells 3.1%; for Growth (percentage of control) Sub-G0; percentage of cells in sub-G0/G1 phase: MCF-7, 72 h, ¼ x IC50; for cell cycle arrest (phase): MCF-7 cells, 72 h
Method: Cells were tested in 6-well plates (3 mL, 1 × 10^5 cells/mL) and the incubation time was 72 h in humidified 5% CO2 atmosphere at 37 °C. […] Untreated cells (control) were used for comparison with treated cells. The BD FACS Aria I Cell Sorter Flow Cytometer (Becton-Dickinson, Germany) was then used for cell cycle analysis. For each sample, 10^4 cells were counted. For PI excitation, an argon-ion laser emitting at 488 nm was used. Cytographs were analyzed using BD FACSDiva™ Flow Cytometry Software Version 6.1.2 (Becton-Dickinson).

caspase 9 in MCF-7 cells = experiment: Caspase-Glo 9 assay; type: cell-based, human; conditions: MCF-7, 6 h, optimal activity generally at IC50, vs untreated control
From the text: as §2

[12] = all 4/4 tested cancer cell lines, read-out: IC50 values against the four tested cancer cell lines

SMILES	IC50 [1] [µM]	IC50 [2] [µM]	IC50 [3] [µM]	selectivity ratio at 72 h [4]	IC50 ([5]; Homo sapiens, Caco-2, 72 h) [µM]	IC50 [6] [µM]	selectivity index, MCF7 [2]	selectivity ratio at 72 h (in vitro)	selectivity index, DLD-1 [3]	selectivity index, HepG2 [6]	IC50 [7, 12] [µM]	P2: cells with altered MMP (MMP depletion) (MCF-7 cells [8])	increase in ROS levels (MCF-7 cells [9]) [fold]	increase of caspases 3/7 activity [10] [fold]	percentages of cells in sub-G0/G1 phase (MCF-7 cells [11]) [%]	Growth (percentage of control) Sub-G0; percentage of cells in sub-G0/G1 phase (MCF-7 cells [11]) [%]	cell cycle arrest (phase) (MCF-7 cells [11])	increase of caspase 9 activity (caspase 9 in MCF-7 cells) [fold]	IC50 ([7]; 3/4 tested cancer cell lines, read-out: IC50 values in 3/4 tested cell lines) [µM]	IC50 ([5]; NR assay, 72 h incubation) [µM]
CCC(/C=C/[C@@H](C)C1CCC2C3=CCC4C[C@@H](O)CCC4(C)C3CCC21C)C(C)C (stereo partly drawn) [Compound 1, β-spinasterol]	> 97.1	> 97.1	> 97.1	> 1.39	69.8 ± 5.12	> 97.1	–	–	–	–	–	–	–	–	–	–	–	–	–	–
C[C@H]1C(=O)CC[C@@H]2[C@]1(C)CC[C@H]1[C@@]2(C)CC[C@@]2(C)[C@@H]3CC(C)(C)CC[C@]3(C)CC[C@]12C [Compound 2, friedelanone]	> 93.9	70.8 ± 4.95	> 93.9	–	> 93.9	> 93.9	> 1.33	–	–	–	–	–	–	–	–	–	–	–	–	–
C=C(C)[C@@H]1CC[C@@]2(C)C1C1CCC3[C@@]4(C)CC[C@H](O)C(C)(C)C4CC[C@@]3(C)[C@]1(C)C[C@@H]2O (stereo partly drawn) [Compound 3, 16β-hydroxylupeol]	52.6 ± 5.11	9.12 ± 1.02	15.4 ± 0.96	–	20.8 ± 1.53	35.6 ± 3.29	5.76	2.53	3.41	1.47	< 85	–	–	–	–	–	–	–	–	–
CC(=O)O[C@H]1CC[C@]2(C)[C@H]3CC=C4[C@@H]5CC(C)(C)CC[C@]5(C)CC[C@@]4(C)[C@]3(C)CC[C@H]2C1(C)C [Compound 4, β-amyrin acetate]	> 85.5	> 85.5	> 85.5	–	> 85.5	> 85.5	–	–	–	–	–	–	–	–	–	–	–	–	–	–
C=C(C)[C@@H]1CC[C@]2(C)CC[C@]3(C)[C@H](CC[C@@H]4[C@@]5(C)CC[C@H](OC(C)=O)C(C)(C)[C@@H]5CC[C@]43C)[C@@H]12 [Compound 5, lupeol acetate]	> 85.5	10.7 ± 0.75	> 85.5	–	> 85.5	> 85.5	> 8.00	–	–	–	–	–	–	–	–	–	–	–	–	–
CO[C@H]1[C@H](O)[C@@H](O)[C@@H](O)[C@@H](O)[C@@H]1O [Compound 6, 5-O-methyl-myo-inositol or sequoyitol]	> 206	167 ± 12	> 206	–	> 206	45.1 ± 3.42	> 1.24	–	–	> 4.57	–	–	–	–	–	–	–	–	–	–
COc1cc(O)c2c(=O)c(O[C@H]3OC(C)[C@@H](O)C(O)[C@H]3O)c(-c3ccc(O)c(O)c3)oc2c1 (stereo partly drawn) [Compound 7, rhamnitrin or 7-O-methylquercetin 3-O-rhamnoside]	52.3	60.9 ± 5.39	> 86.6	–	> 86.6	> 86.6	0.86	–	–	–	–	–	–	–	–	–	–	–	–	–
COc1cc(O)c2c(=O)c(O[C@H]3OC(C)[C@@H](O)C(O)[C@H]3O)c(-c3cc(O)c(O)c(O)c3)oc2c1 (stereo partly drawn) [Compound 8, europetin 3-O-rhamnoside or 7-O-methylmyricetin 3-O-rhamnoside]	> 83.7	16.7 ± 1.81	> 83.7	–	> 83.7	> 83.7	> 5.00	–	–	–	–	–	–	–	–	–	–	–	–	–
COc1cc2c(c(O)c1CC=C(C)C)C(=O)[C@H](O)[C@@H](c1ccc(O)cc1)O2 [Compound 9, thonningiol]	45.5 ± 4.17	0.36 ± 0.01	5.65 ± 0.03	8.6	5.28 ± 0.06	3.88 ± 0.04	124.59	–	8.05	11.72	< 10	11.2%	4.46	3.97	28.3	11.6	Go/G1	2.67	–	–
CC1(C)C=Cc2c(O)ccc(C3COc4cc(O)cc(O)c4C3=O)c2O1 (stereo not drawn) [Compound 10, glyasperin F]	> 113	11.1 ± 0.88	20.9 ± 1.64	> 6.42	17.6 ± 1.39	16.9 ± 1.2	> 10.14	–	> 5.41	> 6.69	< 85	–	–	–	–	–	–	–	–	–
C=C(CO)C1Cc2cc3c(cc2O1)OCC1c2ccc(O)cc2OC31 (stereo not drawn) [Compound 11, seputhecarpan B]	> 118	11.9 ± 0.94	57.9 ± 3.89	> 1.4	84.4 ± 6.32	61.9 ± 4.2	> 9.93	–	> 2.04	> 1.91	< 85	–	–	–	–	–	–	–	–	–
C=C(CO)C1Cc2cc3c(cc2O1)OCC1c2ccc(OC)cc2OC31 (stereo not drawn) [Compound 12, seputhecarpan C]	> 114	13.3 ± 0.67	37.8 ± 1.76	> 1.69	67.3 ± 3.98	76.7 ± 7.24	> 8.55	–	> 3.00	> 1.48	< 85	–	–	–	–	–	–	–	–	–
C=CC(C)(C)c1cc2c(cc1O)OCC1c3ccc(OC)cc3OC21 (stereo not drawn) [Compound 13, seputhecarpan D]	> 118	9.78 ± 0.55	10.8 ± 1.11	> 11.3	10.5 ± 0.48	67.7 ± 5.18	> 12.10	–	> 10.97	–	–	12.9%	3.78	4.66	31.1	7.6	Go/G1	3.47	< 10	–
CC1(C)C=Cc2c(cc(O)c3c(=O)c4cc5c(c(O)c4oc23)OC(C)(C)C=C5)O1 [Compound 14, rheediaxanthone A]	80.3 ± 5.42	> 102	> 102	35.5	3.15 ± 0.01	14.6 ± 0.93	–	–	–	5.50	–	–	–	–	–	–	–	–	–	–
COc1cccc2c1C(=O)c1c(O)c3c(c(O)c1C2=O)C[C@@](O)(C(=O)CO)C[C@@H]3O[C@H]1C[C@H](N)[C@H](O)[C@H](C)O1 [Doxorubicin, doxorubicin, reference compound]	0.59 ± 0.01	0.35 ± 0.05	0.37 ± 0.05	–	–	0.18 ± 0.03	–	–	–	–	–	up to 26.0%	2.40	–	60	27.6	–	1.3	–	0.72 ± 0.13
